Data published in patent US6784173B2, “Aromatic dicarboxylic acid derivatives” (Hoffmann-La Roche Inc., priority 2001, dated 2004).

System: HT-29 cells (human colon carcinoma cell line)
Experiment: MTT tetrazolium dye proliferation assay on HT-29 cells
Format: cell-based
Conditions: MTT assay after 5 days of compound exposure, 30 uM to 1.5 nM, read-out: IC50 HT29
Description: MTT (tetrazolium dye proliferation assay) is widely used for the quantitative determination of cytotoxic effects or in vitro chemosensitivity of tumor cells. The assay is based on the cleavage of the yellow tetrazolium salt MTT to purple formazan crystals by metabolic active cells. For details, see Rubinstein, L. V., et al., J. Natl. Cancer Inst. 82 (1990) 1113-1118.
The following procedure was performed: HT-29 cells (human colon carcinoma cell line) were cultivated in RPMI 1640, 2.5% FCS, 2 mM Glutamine, 100 u/ml Penicillin, 100 ug/ml Streptomycin. For the assay the cells were seeded in 384 well plates, 900 cells per well, in the same medium The next day compounds (dissolved 10 mM in DMSO) were added in various concentrations ranging from 30 uM to 1.5 nM. After 5 days the MTT assay was done mainly according to the instructions of the manufacturer (Cell proliferation kit I, MTT, form Roche Molecular Biochemicals). In brief: MTT labeling reagent was added to a final concentration of 0.5 mg/ml, added and incubated for 4 hrs at 37 C., 5% CO2. During this incubation time purple formazan crystals are formed. After addition of the solubilization solution (20% SDS in 0.02 M HCl) the plates were incubated overnight at 37 C, 5% CO2. After careful mixing plates were measured in Victor 2 (scanning multiwell spectrophotometer, Wallac) at 550 nm.
A decrease in number of living cells results in a decrease in the total metabolic activity in the sample. The decrease directly correlates to the amount of purple colour resulting from the solubilization of the purple formazan crystals. Determination of IC50 was done using XL-fit.

IC50 [nM]	Compound
20	CC(CCc1ccccc1)NC(=O)c1ccc(C(=O)NO)s1 (centres unmarked) [Example 15, No. 128, Thiophene-2,5-dicarboxylic acid 2-hydroxyamide 5-[(1-methyl-3-phenyl-propyl)-amide]]
140	O=C(NO)c1ccc(C(=O)NCc2cccc(Cl)c2)s1 [Example 4, Thiophene-2,5-dicarboxylic acid 2-(3-chloro-benzylamide) 5-hydroxyamide]
140	O=C(NO)c1ccc(C(=O)NCCC(c2ccccc2)c2ccccc2)s1 [Example 15, No. 90, thiophene-2,5-dicarboxylic acid 2-[(3,3-diphenyl-propyl)-amide] 5-hydroxyamide]
70	O=C(NO)c1ccc(C(=O)NCc2cccc(Br)c2)s1 [Example 15, No. 94, Thiophene-2,5-dicarboxylic acid 2-(3-bromo-benzylamide) 5-hydroxyamide]
40	O=C(NO)c1ccc(C(=O)NCCOc2ccccc2)s1 [Example 15, No. 104, Thiophene-2,5-dicarboxylic acid 2-hydroxyamide 5-[(2-phenoxy-ethyl)-amide]]

Continued, compound first:

Compound	IC50 [nM]
O=C(NO)c1ccc(C(=O)NCc2ccc(Cl)c(Cl)c2)s1 [Example 15, No. 139, Thiophene-2,5-dicarboxylic acid 2-(3,4-dichloro-benzylamide) 5-hydroxyamide]	170
CC(C)CCCC(C)NC(=O)c1ccc(C(=O)NO)s1 (centres unmarked) [Example 15, No. 81, thiophene-2,5-dicarboxylic acid 2-[(1,5-dimethyl-hexyl)-amide] 5-hydroxyamide]	30
Cc1cc(C)cc(CNC(=O)c2ccc(C(=O)NO)s2)c1 [Example 5, Thiophene-2,5-dicarboxylic acid 2-(3,5-dimethyl-benzylamide) 5-hydroxyamide]	50
O=C(NO)c1ccc(C(=O)NCc2ccc(C(F)(F)F)cc2)s1 [Example 2, Thiophene-2,5-dicarboxylic acid 2-hydroxyamide 5-(4-trifluoromethyl-benzylamide)]	110
O=C(NO)c1ccc(C(=O)NCc2cc(C(F)(F)F)cc(C(F)(F)F)c2)s1 [Example 15, No. 93, Thiophene-2,5-dicarboxylic acid 2-(3,5-bis-trifluoromethyl-benzylamide) 5-hydroxyamide]	50
CC(C)(C)c1ccc(CNC(=O)c2ccc(C(=O)NO)s2)cc1 [Example 15, No. 98, Thiophene-2,5-dicarboxylic acid 2-(4-tert-butyl-benzylamide) 5-hydroxyamide]	70
